Assay results reported in PubChem BioAssay (NCI).
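Grown in 96-well plates, cells were treated for 48 hours with each compound at five concentrations. Insufficient inhibition: endpoint recorded as highest concentration tested. Abbreviation: GI50, concentration required for 50% inhibition of growth. Definition used: TGI = concentration required for complete inhibition of growth.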

What was measured:
Assay in all cases: growth of human tumour cells (NCI), 48 h
786-0 renal = tested on: 786-0 renal
A549 NSCLC = tested on: A549 NSCLC
HCT-116 colon = tested on: HCT-116 colon
HL-60(TB) leukemia = tested on: HL-60(TB) leukemia
MALME-3M melanoma = tested on: MALME-3M melanoma
NCI-H522 lung = tested on: NCI-H522 lung
PC-3 prostate = tested on: PC-3 prostate
SW-620 colon = tested on: SW-620 colon
TK-10 renal = tested on: TK-10 renal
U251 CNS = tested on: U251 CNS

| SMILES | TGI (786-0 renal) | TGI (A549 NSCLC) | TGI (HCT-116 colon) | TGI (HL-60(TB) leukemia) | TGI (MALME-3M melanoma) | TGI (NCI-H522 lung) | TGI (PC-3 prostate) | TGI (SW-620 colon) | TGI (TK-10 renal) | TGI (U251 CNS) | GI50 (HCT-116 colon) |
| --- | --- | --- | --- | --- | --- | --- | --- | --- | --- | --- | --- |
| CC1=C(C)SC(=C2Sc3c(n(C)c(=O)n(C)c3=O)S2)S1 | 34.8 µM | > 100 µM | 27.5 µM | > 100 µM | > 100 µM | > 100 µM | > 100 µM | > 100 µM | 74.7 µM | 18.9 µM |  |
| NC(=O)C1CCN(Cc2c(Cl)c(Cl)c(CN3CCC(C(N)=O)CC3)c(Cl)c2Cl)CC1 | > 100 µM | > 100 µM | > 100 µM | > 100 µM | > 100 µM | > 100 µM | > 100 µM | > 100 µM | > 100 µM | > 100 µM |  |
| O=c1c2c3c(sc2nc2n1N=C(c1ccc(Br)cc1)CS2)CCCC3 | > 100 µM | > 100 µM | > 100 µM | > 100 µM | > 100 µM | > 100 µM | > 100 µM | > 100 µM | > 100 µM | > 100 µM |  |
| NC(=O)NN=C1Cc2ccccc2C1 | > 100 µM | > 100 µM | > 100 µM | > 100 µM | > 100 µM | > 100 µM | > 100 µM | > 100 µM | > 100 µM | > 100 µM |  |
| CC[C@H](NC(=O)OC(C)(C)C)C(=O)NCP(=O)(OCc1ccc([N+](=O)[O-])cc1)OCc1ccc([N+](=O)[O-])cc1 | > 100 µM | > 100 µM | > 100 µM | 62.2 µM | > 100 µM | > 100 µM | > 100 µM | > 100 µM | > 100 µM | 97.1 µM |  |
| CCN(CC)C(=S)N/N=C(/c1ccccc1)c1ccccn1 | 1.19 µM | > 39.7 µM | 13.6 µM | 1.59 µM | > 47.1 µM | > 100 µM | > 100 µM | > 49.4 µM | 29 µM | 18.8 µM |  |
| O=C([C@H](O)[C@@H](O)c1cccc(Cl)c1)C12CC3CC(CC(C3)C1)C2 | 3.3 µM | 5.25 µM | 6.79 µM | 3.79 µM | 18.2 µM | 5.04 µM | 4.05 µM | > 45 µM | 3.69 µM | 2.98 µM |  |
| CC/C=N\N1C(N)=C(C#N)C(C#N)(C#N)C1CC (stereo unspecified) | > 100 µM | > 100 µM | > 100 µM | 85.6 µM | > 100 µM | > 100 µM | > 100 µM | > 100 µM | > 100 µM | > 100 µM |  |
| CCC1(CC)C(=O)N(C(=O)c2cc(OC)c(OC)c(OC)c2)N(C(=O)c2cc(OC)c(OC)c(OC)c2)C1=O | > 50 µM | > 50 µM | > 50 µM | > 50 µM | > 50 µM | > 50 µM | > 50 µM | > 50 µM | > 50 µM | > 50 µM |  |
| COC1(CC[C@H](C)COC2OC(CO)C(O)C(O)C2O)O[C@H]2C[C@H]3[C@@H]4CC=C5C[C@@H](OC6OC(CO)C(OC7OC(C)C(O)C(O)C7O)C(O)C6OC6OC(C)C(O)C(O)C6O)CC[C@]5(C)[C@H]4CC[C@]3(C)[C@H]2[C@@H]1C (stereo partly specified) | 5.57 µM | 4.28 µM | 8.34 µM | 46.6 µM | 9.15 µM | 5.31 µM | 11.9 µM | 6.78 µM | > 100 µM | 7.36 µM | 2.92 µM |
